Results on 1 molecule are retold here after EP1211505A1, “METHOD FOR MEASURING SUBSTANCE AND M[…] TO BE USED IN THE METHOD” (Asahi Kasei Kabushiki Kaisha, priority 1999, dated 2001).

Data set [1] can be described thus: Solubility of BCIP / BCI2. In kind it is physicochemical. The following applies: buffer 1: 1.01 M 2-ethylaminoethanol-HCl/0.505 mM MgCl2 (pH 9.87). Here is the method:
The solubility of BCIP in the buffer 1 is about 70 mM. In order to obtain the optimum concentration of BCIP, first an ALP measurement reagent was prepared by dissolving BCIP in the buffer 1 to give a final concentration of 70 mM, and then the prepared reagent was diluted with the buffer 1 step by step to prepare ALP measurement reagents having BCIP final concentrations of 70 mM, 35 mM, 15 mM, 10 mM, 6.25 mM, 5 mM, 2.5 mM and 1.25 mm, respectively.

For data set [2] the following is noted: in the form of a sodium salt, cited from earlier work.

Where two headings read alike, the source gives them in different places.

On to `O=P(O)(O)Oc1c[nH]c2ccc(Br)c(Cl)c12` [BCIP, 5-bromo-4-chloro-3-indoxyl phosphate], for which the “solubility of BCIP in the buffer 1” value in data set [1] was “about 70 mM”. For the same molecule, the “solubility of BCIP in pure water” value is 54 mM in data set [2] (same value expressed in mM) and 20 mg/mL in data set [2].
